Results reported in patent US20100081622A1, “Reduction of parathyroid hormone levels” (Sanos Bioscience A/S, priority 2008, published 2010).

What was measured:
serum PTH = conditions: tHPT patients, after 10 weeks of treatment; cited from earlier work
[1] = rats; cited from earlier work
plasma PTH [2] = assay: Plasma PTH after morning administration of GLP-2 in fasting subjects (Example 1); format: in vivo, human; conditions: postmenopausal women, one dose of 100, 200, 400 or 800 μg at 9 am, followed 8 hrs, FIG. 1
Protocol: The study was a randomized, block-stratified, placebo-controlled, parallel study. A total of 60 subjects of postmenopausal women were included and allocated to one of five groups each including 12 subjects receiving one dose of 100 μg, 200 μg, 400 μg, 800 μg GLP-2, or placebo.
On the day of treatment with the study medication, the subjects met at the study site after an overnight fast. The study medication was administered at 9 am (0 hrs) and the subjects remained fasting for another 8 hrs, thus at 5 pm the fasting period ended.

plasma PTH [3] = assay: Plasma PTH at Day 1 and Day 120 after daily bedtime administration for 120 days (Example 3); format: in vivo, human; conditions: postmenopausal women with osteopenia; daily 0.4, 1.6 or 3.2 mg subcutaneous at bedtime for 120 days plus calcium and vitamin D
Protocol: The study was a randomised, double-blinded, placebo-controlled, parallel group and dose-ranging study in 160 postmenopausal women with osteopenia (BMD T-score, −2.5≦T≦−1.0) at one or more of the regions: the lumbar spine, femoral neck or total hip. Forty (40) subjects were randomised to each treatment group to receive treatment with daily doses of 0.4 mg, 1.6 mg or 3.2 mg of GLP-2 plus calcium (800-1000 mg/day) and vitamin D (400-800 IU/day), or placebo plus calcium (800-1000 mg/day) and vitamin D (400-800 IU/day) for 120 days.
The treatment involved a daily injection of the study medication at bedtime (10:00 pm±1 hour) for 120 consecutive days.
Pharmacokinetic/dynamic sampling during treatment Day 1 and 120 included blood and urine samples collected at the time points: −1 hour, 0 min, 1 hour, 2 hours, 3 hours, 6 hours and 10 hours in connection with the injection of the study medication for the assessment of efficacy parameters and pharmacokinetic/dynamic parameters of subcutaneous injections of GLP-2.

plasma PTH [4] = assay: Plasma PTH after bedtime administration of GLP-2 in non-fasting subjects (Example 2); format: in vivo, human; conditions: postmenopausal women, 2x800 μg 3 hrs apart versus 1600 μg once, at bedtime, FIG. 2
Protocol: The study was a randomized, block-stratified, placebo-controlled, parallel study. A total of 44 postmenopausal women were included and randomly assigned to treatment with either 1600 μg GLP-2 (n=14), 800 μg GLP-2 twice (administered 3 hrs apart) (n=15), or placebo, i.e. saline (n=15). All subjects received 2 injections one at 10 pm […] and one 3 hrs later at 1 am […]. Thus, the placebo group was given two injections of saline and the 2×800 μg group two injections of 800 μg GLP-2, while the 1600 μg group received one injection of 1600 μg GLP-2 and one injection of saline.
On the day of treatment with the study medication, blood samples for efficacy measurement was taken from 10 pm every hour until 8 am.

## C[C@@H](NCCCc1cccc(C(F)(F)F)c1)c1cccc2ccccc12 [Cinacalcet]
Serum PTH
  reduction in serum PTH: 21.8%

## C=C1/C(=C\C=C2/CCC[C@]3(C)[C@@H]([C@H](C)CCCC(C)(C)O)CC[C@@H]23)C[C@@H](O)C[C@@H]1O [calcitriol]
[1]
  aortic calcification: moderate to marked aortic calcification

## His-Ala-Asp-Gly-Ser-Phe-Ser-Asp-Glu-Met-Asn-Thr-Ile-Leu-Asp-Asn-Leu-Ala-Ala-Arg-Asp-Phe-Ile-Asn-Trp-Leu-Ile-Gln-Thr-Lys-Ile-Thr-Asp-Arg (HADGSFSDEMNTILDNLAARDFINWLIQTKITDR; printed: His-Ala-Asp-Gly-Ser-Phe-Ser-Asp-Glu-Met-Asn-Thr-Ile-Leu-Asp-Asn-Leu-Ala-Ala-Arg-Asp-Phe-Ile-Asn-Trp-Leu-Ile-Gln-Thr-Lys-Ile-Thr-Asp-Arg) [GLP-2]
Plasma PTH [2]
  plasma PTH level after GLP-2: dose dependent rapid decrease in PTH which gradually abates over an 8 hour period
Plasma PTH [3]
  effect on plasma PTH over the treatment period, Day 1 versus Day 120: remains consistent
Plasma PTH [4]
  plasma PTH, area difference between treatment and placebo curves: two injections of 800 μg produced a greater area difference between the treatment and placebo curves
